According to patent publication US20070086956A1, “Method for accelerating the rate of mucociliary clearance” (BAYER AKTIENGESELLSCHAFT, priority 1998, published 2007):
Like-named read-outs stand apart in the source and are kept apart here.

How the values were obtained:
guinea pig trachea [1] = assay: Tracheal mucus velocity (TMV) in the guinea-pig; type: in vivo
Procedure: The aim of this study was to investigate the effect of the Kunitz family serine protease inhibitor Bikunin on guinea-pig tracheal mucus velocity 1.5 hours post treatment. This agent was delivered into the cephalad trachea by topical instillation. TMV was monitored 1.5 hours later for 60 mins. The procedure used in this Example is described in Newton et al. in “Cila, Mucus and Mucociliary Interactions,” Ed., Baum, G. L. et al., Marcel Dekker, New York, 1998; Newton et al., Ped. Pulm. S17, Abs. 364, 1998). […]
TMV was monitored using a lead collimated miniature Beta particle detector probe arranged to detect the radioactivity emitted from an injected aliquot of ^32P-labelled Saccharomyces cerevisiae as it was transported on the tracheal mucociliary layer of an anaesthetized guinea pig (Newton and Hall 1998) FIG. 16(a) illustrates the arrangement of the syringe and beta probe. FIG. 16(b) illustrates the counts detected by the probe as the ^32P-labelled S. cerevisiae is transported along the tracheal mucociliary layer. […]
The aim of this comparative study was to investigate the effect of hypertonic saline (14.4%×5 min) on guinea-pig tracheal mucus velocity. […] TMV was monitored immediately and every 15 minutes for 30 minutes. […]

[2] = test system: human bronchial epithelial cell (HBE); assay: Short circuit current (Isc) in cultured human bronchial epithelial (HBE) cells, Ussing chamber; type: cell-based; settings: for sodium current: 0.5 to 5 ug/mL (0.5, 1.5 and 5 ug/mL), 90 minute period
Procedure: Tertiary HBE cell monolayer grown to confluence were mounted in modified Ussing chambers, immersed in Krebs buffer (KBR) solution and bubbled with 95% O2/5% CO2 warmed to 37 C.
Cells were left to equilibrate for 20 minutes before calibrating for background noise and fluid resistance. Transepithelial potential difference was then clamped to 0 mV using a WPI EVC 4000 voltage clamp. Ag/AgCl electrodes were used to monitor Isc. […] Once a response to amiloride was seen, it was washed out with KBR solution. […] 90 minutes following agent treatment, amiloride (10 uM) was added. Once the current was stable forskolin (10 uM) and then bumetanide (100 uM) was added.
Tertiary HBE cell monolayers grown to confluence were mounted in modified Ussing chambers, immersed in Krebs buffer (KBR) solution and bubbled with 95% O2/5% CO2 warmed to 37 C.
Cells were left to equilibrate for 20 minutes before calibrating for background noise and fluid resistance. Transepithelial potential difference was then clamped to 0 mV using a WPI EVC 4000 voltage clamp. Ag/AgCI electrodes were used to monitor Isc. […] Once a response to amiloride was seen, it was washed out with KBR solution. […] 90 minutes following agent treatment, amiloride (10 uM) was added.

A6 cells = settings: exposure of the apical membrane (Vallet et al 1997; Chraibi et al 1998), cited from earlier work
[3] = test system: human CF bronchial epithelial cells; assay: Short circuit current (Isc) in cultured human cystic fibrosis bronchial epithelial cells; type: cell-based
Procedure: HBE cells were isolated from CF patient lung transplant tissue and grown in collagen coated flasks for one week. The cells were then passaged and seeded onto collagen coated Costar Transwell filters (0.33 cm2) and grown in DMEM/F12 media supplemented with 2% Ultroser G. Cells were grown at an air liquid interface and used 2 to 4 weeks after seeding:
Cells on the Transwell filters were mounted in modified Costar Ussing chambers and studied under Isc conditions. […] Isc was recorded for 100 minutes and then the apical bath fluid was exchanged with fresh buffer. Trypsin (100 BAEE units/mL) was added to the apical side and Isc recorded for 10 minutes. Amiloride (10 uM) was then added to the apical side and Isc was recorded for a further 10 minutes.
HBE cells were isolated from CF patient lung transplant tissue and grown in collagen coated flasks for one week. The cells were then passaged and seeded onto collagen coated Costar Transwell filters (0.33 cm^2) and grown in DMEM/F12 media supplemented with 2% Ultroser G. Cells were grown at an air liquid interface and used 2 to 4 weeks after seeding.
Cells on the Transwell filters were mounted in modified Costar Ussing chambers and studied under Isc conditions. […] Isc was recorded for 90 minutes and then amiloride (10 uM) was added and Isc was recorded for a further 10 minutes. The apical bath fluid was then exchanged with fresh buffer, and Isc was recorded for a further 15 minutes. Trypsin (1 uM) was added to the apical side and Isc recorded for 15 minutes. Amiloride (10 uM) was then added to the apical side and Isc was recorded for a further 10 minutes.

allergic sheep = settings: cited from earlier work
guinea pig trachea [4] = settings: 10 mM, 20 minute aerosol; 15 minutes after; n=8 (Newton et al 1998); cited from earlier work
diseased patients = settings: inhalation; diseased patients (Robinson et al 1997; App et al 1990); cited from earlier work

With “Des Pro2-Ser10-Arg15-Asp24-Thr26-Glu31-Asn41-Glu53-Aprotinin [Aprotinin double mutein]” the TMV (guinea pig trachea [1]; 10 ug, relative to HBSS, 1.5 to 2.5 hours following administration, FIG. 26) was “increased TMV”, the sodium current ([2]; FIG. 20) was “dose dependently inhibited sodium current” and the sodium current ([2]; FIG. 20, listed as aprotinin double mutein) was “decrease sodium short circuit current”.
In the case of Aprotinin, the “transepithelial Na+ transport” value (A6 cells) is listed as “reduce transepithelial Na^+ transport”, the “transepithelial Na+ transport” value (A6 cells; listed as aprotinin) is listed as “reduced transepithelial Na^+ transport” and the “sodium short circuit current” value ([2]; 5 ug/mL, FIG. 20) is listed as “decrease sodium short circuit current”. The Isc ([3]; 20 ug/mL, 90 minutes after apical application) was “decreases sodium current”, the Isc ([3]; 20 ug/mL, 90 minutes after apical application, listed as aprotinin) was “inhibited Isc” and the Isc ([3]; 1 mg/mL in PBS, over a 100 minute period, FIG. 21) was “inhibited Isc”.
For “α1-PI: serpin-family serine protease inhibitor alpha(1)-protease inhibitor”, the “effect on Na+ Isc” value ([2]; 50 ug.ml−1, normal HBE cells, further study) is listed as “without a significant effect”, the “antigen-induced reduction in TMV” value (allergic sheep; 10 mg given 30 min before or 1 h after antigen challenge, 6 h after challenge) is listed as “attenuated antigen-induced reduction in TMV” and the “baseline TMV” value (allergic sheep; administered on its own (no antigen challenge), over a 6 h period) is listed as “no effect on baseline TMV”. For the same compound, the “antigen-induced fall in TMV” value (allergic sheep; given 6 h after antigen challenge, at 24 h after challenge) was “significant reversal of the antigen-induced fall in TMV”.
In the case of `N=C(N)NC(=O)c1nc(Cl)c(N)nc1N` [amiloride, reference compound], the TMV (guinea pig trachea [4]) is listed as 8.1±0.3 mm.min^−1, the TMV (guinea pig trachea [1]; 10 mM x 20 mins aerosol, 15 minutes after aerosol, FIG. 19) is listed as “statistically significant increase in TMV” and the MCC (diseased patients) is listed as “significantly increase MCC”. For the same compound, the Isc ([3]; 10 uM, apical, after trypsin) was “inhibited the majority of the current”.
